According to patent US20230332232A1, “COMPOSITIONS AND METHODS FOR DIAGNOSING AND TREATING A DYSTONIA” (Duke University, priority 2020, published 2023):

System: DYT1 knockin (Tor1a^delGAG/+) murine embryonic fibroblasts (MEFs)
Assay: Untargeted LC/MS/MS proteomics of EVs from DYT1 MEFs exposed 24 hours to drug, compared with untreated DYT1 (Het) MEFs
Assay type: cell-based, mouse
Method: Methods for isolation and purification of exosomes and extracellular vesicles (EV) were extensively reviewed. Experiments were performed to arrive at a robust and reproducible protocol. The protocol used herein is that set forth in Théry et al, 2006, which is incorporated by reference for it teaching of this protocol. This protocol involves depleting serum-derived EVs from cell culture media by overnight ultracentrifugation and exchanging media for 1% FBS EV-depleted media. Media is then collected from cells following a 24-hour conditioning period and EVs are isolated by 18-hour ultracentrifugation at 100,000 g (FIG. 1A).
EVs were isolated from media of cultured murine embryonic fibroblasts (MEFs) prepared in-house according to protocols described by Xu 2005 from DYT1 knockin mice (Tor1a^delGAG/+) (Goodchild R E, et al. (2005) Neuron. 48:923-932) and littermate wild-type (WT) controls. The cultured MEFs from the DYT1 mice were exposed for 24 hours to Ritonavir (RTV) while the MEFs from WT mice were exposed to vehicle, ISRIB, or Salubrinal (SAL). The EVs isolated from these WT cells and DYT1 were characterized by untargeted proteomics and RNA-seq to identify differentially expressed proteins and RNAs as candidate biomarkers. Experimenter and Proteomics core staff were blinded to genotype of cell cultures throughout preparation and analysis phases.
Samples were first normalized to 20 μg and spiked with undigested casein at a total of 40 fmol/μg, 80 fmol/μg, or 160 fmol/μg, then reduced with 10 mM dithiolthreitol for 30 minute at 80° C. and alkylated with 20 mM iodoacetamide for 30 minutes at room temperature. Next, the samples were supplemented with a final concentration of 1.2% phosphoric acid and 741 μL of S-Trap (Protifi) binding buffer (90% MeOH/100 mM […]). Proteins were trapped on the S-Trap, digested using 20 ng/μL sequencing grade trypsin (Promega) for 1 hour at 47° C., and eluted using 50 mM TEAB, followed by 0.2% FA, and lastly using 50% CAN/0.2% FA. All samples were then lyophilized to dryness and resuspended in 40 μL 1% TFA/2% acetonitrile containing 12.5 fmol/μL yeast alcohol dehydrogenase (ADH_YEAST). A QC Pool was created from 3 uL of each sample. All QC Pools were run periodically throughout the acquisition period.
Quantitative LC/MS/MS was performed on 2 μL of each sample, using a nanoAcquity UPLC system (Waters Corp) coupled to a Thermo Orbitrap Fusion Lumos high resolution accurate mass tandem mass spectrometer (Thermo) via a nanoelectrospray ionization source. Briefly, the sample was first trapped on a Symmetry C18 20 mm×180 μm trapping column (5 μL/min at 99.9/0.1 v/v water/acetonitrile), after which the analytical separation was performed using a 1.8 μm Acquity HSS T3 C18 75 μm×250 mm column (Waters Corp.) with a 90 minute linear gradient of 5% to 30% acetonitrile with 0.1% formic acid at a flow rate of 400 nanoliters/minute (nL/min) with a column temperature of 55° C. Data collection on the Fusion Lumos mass spectrometer was performed in a data-dependent acquisition (DDA) mode of acquisition with a r=120,000 (@ m/z 200) full MS scan from m/z 375-1500 with a target AGC value of 2e5 ions. MS/MS scans were acquired at Rapid scan rate (Ion Trap) with an AGC target of 5e3 ions and a max injection time of 100 ms. The total cycle time for MS and MS/MS scans was 2 seconds. A 20 second dynamic exclusion was employed to increase depth of coverage. The total analysis cycle time for each sample injection was approximately 2 hours.

Structure (SMILES): CC(C)c1nc(CN(C)C(=O)N[C@H](C(=O)N[C@@H](Cc2ccccc2)C[C@H](O)[C@H](Cc2ccccc2)NC(=O)OCc2cncs2)C(C)C)cs1 [RTV, Ritonavir]
- Abs Z Score Sum (Geno + RTV) (EV protein Sptan1 (P16546)): 6.02
- Abs Z Score Sum (Geno + RTV) (EV protein Spthn1 Q62261): 6.23
- Abs Z Score Sum (Geno + RTV) (EV protein Srsf7 Q8BL97): 5.72
- Abs Z Score Sum (Geno + RTV) (EV protein Ssb (P32067)): 5.45
- RTV Direction Opposite dE? (EV protein Ssb (P32067)): yes
- Abs Z Score Sum (Geno + RTV) (EV protein Ssbp1 (Q9CYR0)): 12.21
- RTV Direction Opposite dE? (EV protein Ssbp1 (Q9CYR0)): yes
- RTV Direction Opposite dE? (EV protein Svep1 (A2A0A0)): yes
- Abs Z Score Sum (Geno + RTV) (EV protein Tars (Q9D0R2)): 9.50
- Abs Z Score Sum (Geno + RTV) (EV protein Tra2b (P62996)): 6.63
- RTV Direction Opposite dE? (EV protein Tra2b (P62996)): yes
- Abs Z Score Sum (Geno + RTV) (EV protein Ube2n P61089): 8.62
- Abs Z Score Sum (Geno + RTV) (EV protein Upf1 (Q9..)): 9.02
- Abs Z Score Sum (Geno + RTV) (EV protein Usol Q9Z1Z0): 12.14
- Abs Z Score Sum (Geno + RTV) (EV protein Vapa (Q9WV55)): 8.93
- RTV Direction Opposite dE? (EV protein Vapa (Q9WV55)): yes
- Direction Opposite dE? (EV protein: 26S proteasome non-ATPase regulatory subunit 8): yes
- Direction Opposite dE? (EV protein: 60S [?] subunit biogenesis protein [?] homolog): yes
- Direction Opposite dE? (EV protein: 60S ribosomal protein [?]): yes
- Direction Opposite dE? (EV protein: 116 kDa [?] small nuclear ribonucleoprotein component): yes
- Direction Opposite dE? (EV protein: AP-3 complex subunit [?]): yes
- Direction Opposite dE? (EV protein: ATP-dependent RNA helicase [?]): yes
- Direction Opposite dE? (EV protein: Acyl-protein thioesterase 2): yes
- Direction Opposite dE? (EV protein: Alpha-crystallin B chain): yes
- Direction Opposite dE? (EV protein: Anaphase-promoting complex subunit 2): yes
- Direction Opposite dE? (EV protein: Anaphase-promoting complex subunit 4): yes
- Direction Opposite dE? (EV protein: Anaphase-promoting complex subunit 5): yes
- Direction Opposite dE? (EV protein: Calponin-3): yes
- Direction Opposite dE? (EV protein: Cell [?] cycle protein [?] homolog): yes
- Direction Opposite dE? (EV protein: Cell division cycle protein 27 homolog): yes
- Direction Opposite dE? (EV protein: Choline transporter-like protein 1): yes
- Direction Opposite dE? (EV protein: Coiled-coil domain-containing protein 22): yes
- Direction Opposite dE? (EV protein: Complement C1q [?] -related protein 3): yes
- Direction Opposite dE? (EV protein: Cullin-2): yes
- Direction Opposite dE? (EV protein: Cullin-5): yes
- Direction Opposite dE? (EV protein: Cullin-7): yes
- Direction Opposite dE? (EV protein: Cytosolic purine [?] -nucleotidase): yes
- Direction Opposite dE? (EV protein: DNA [?] (r264)): yes
- Direction Opposite dE? (EV protein: DNA [?] licensing factor MCM4): yes
- Direction Opposite dE? (EV protein: DNA ligase 1): yes
- Direction Opposite dE? (EV protein: DNA replication licensing factor MCM5): yes
- Direction Opposite dE? (EV protein: DNA replication licensing factor [?]): yes
- Direction Opposite dE? (EV protein: DNA-directed RNA polymerase II subunit RPB1): yes
- Direction Opposite dE? (EV protein: DNA-directed RNA polymerase II subunit RPB2): yes
- Direction Opposite dE? (EV protein: DNA-directed RNA polymerase II subunit RPB3): yes
- Direction Opposite dE? (EV protein: DNA-directed RNA polymerase [?] subunit RPA2): yes
- Direction Opposite dE? (EV protein: DNA-directed RNA polymerases I, II, and III subunit RPABC3): yes
- Direction Opposite dE? (EV protein: DNA-directed RNA polymerases I, II, and III subunit [?]): yes
- Direction Opposite dE? (EV protein: Developmentally-regulated GTP-binding protein 2): yes
- Direction Opposite dE? (EV protein: Double-strand-break repair protein rad21 homolog): yes
- Direction Opposite dE? (EV protein: Dual specificity mitogen-activated protein kinase kinase 4): yes
- Direction Opposite dE? (EV protein: Dynactin subunit 4): yes
- Direction Opposite dE? (EV protein: E3 ubiquitin-protein ligase [?]): yes
- Direction Opposite dE? (EV protein: Elongin-B): yes
- Direction Opposite dE? (EV protein: Extended synaptotagmin-1): yes
- Direction Opposite dE? (EV protein: Gamma-tubulin complex component 2): yes
- Direction Opposite dE? (EV protein: General vesicular transport factor p115): yes
- Direction Opposite dE? (EV protein: Glucose-6-phosphate 1-dehydrogenase [?]): yes
- Direction Opposite dE? (EV protein: Glutathione S-transferase omega-1): yes
- Direction Opposite dE? (EV protein: Glycosylated lysosomal membrane protein): yes
- Direction Opposite dE? (EV protein: Golgi reassembly-stacking protein 2): yes
- Direction Opposite dE? (EV protein: Heterogeneous nuclear ribonucleoprotein H): yes
- Direction Opposite dE? (EV protein: Histone-arginine methyltransterase CARM1): yes
- Direction Opposite dE? (EV protein: Immunity-related GTPase family M protein 1): yes
- Direction Opposite dE? (EV protein: Importin-7): yes
- Direction Opposite dE? (EV protein: Inositol monophosphate 1): yes
- Direction Opposite dE? (EV protein: Insulin-like growth factor 1 receptor): yes
- Direction Opposite dE? (EV protein: Integrin beta- 3): yes
- Direction Opposite dE? (EV protein: Lupus [?] protein homolog): yes
- Direction Opposite dE? (EV protein: Lysine-specific histone demethylase [?]): yes
- Direction Opposite dE? (EV protein: Mediator [?] RNA polymerase II transcription subunit 23): yes
- Direction Opposite dE? (EV protein: Metastasis-associated protein [?] (r222)): yes
- Direction Opposite dE? (EV protein: Metastasis-associated protein [?] (r261)): yes
- Direction Opposite dE? (EV protein: Microtubule-associated protein [?]): yes
- Direction Opposite dE? (EV protein: N-alpha-acetyltransferase 10): yes
- Direction Opposite dE? (EV protein: Nerine arginine-rich splicing factor [?]): yes
- Direction Opposite dE? (EV protein: Nuclear [?] complex protein [?]): yes
- Direction Opposite dE? (EV protein: Nuclear cap-binding protein subunit 1): yes
- Direction Opposite dE? (EV protein: Nuclear receptor-binding protein): yes
- Direction Opposite dE? (EV protein: NudC domain-containing protein 1): yes
- Direction Opposite dE? (EV protein: Phospholipase D3): yes
- Direction Opposite dE? (EV protein: Phosphoribosyl pyrophosphate synthase-associated protein 1): yes
- Direction Opposite dE? (EV protein: Probable ubiquitin carboxyl-terminal hydrolase [?]): yes
- Direction Opposite dE? (EV protein: Proenkephalin-A): yes
- Direction Opposite dE? (EV protein: Protein O-GlcNAcase): yes
- Direction Opposite dE? (EV protein: Protein RMD5 homolog A): yes
- Direction Opposite dE? (EV protein: Protein [?] 14 homolog): yes
- Direction Opposite dE? (EV protein: Protein [?] (r160)): yes
- Direction Opposite dE? (EV protein: Protein disulfide-isomerase A4): yes
- Direction Opposite dE? (EV protein: RNA-binding protein [?]): yes
- Direction Opposite dE? (EV protein: Ran-binding protein 10): yes
- Direction Opposite dE? (EV protein: Ras-related protein Rab-6A): yes
- Direction Opposite dE? (EV protein: Ribosome biogenesis protein BOP1): yes
- Direction Opposite dE? (EV protein: Ribosome production factor 2 homolog): yes
- Direction Opposite dE? (EV protein: Serine threonine-protein phosphatase 2A 56 kDa regulatory subunit gamma isoform): yes
- Direction Opposite dE? (EV protein: Sorting nexin-1): yes
- Direction Opposite dE? (EV protein: Splicing factor 3B subunit 4): yes
- Direction Opposite dE? (EV protein: Structural maintenance of [?] protein 2): yes
- Direction Opposite dE? (EV protein: Transformer-2 protein homolog beta): yes
- Direction Opposite dE? (EV protein: Trascriptional activator protein [?] -alpha): yes
- Direction Opposite dE? (EV protein: Ubiquitin-conjugating enzyme [?]): yes
- Direction Opposite dE? (EV protein: WD repeat-containing protein [?]): yes
- Direction Opposite dE? (EV protein: [?] (r162)): yes
- Direction Opposite dE? (EV protein: [?] -1 (r154)): yes
- Direction Opposite dE? (EV protein: [?] -1 (r232)): yes
- Direction Opposite dE? (EV protein: [?] -associated membrane protein-associated protein A): yes
- Direction Opposite dE? (EV protein: [?] -promoting complex subunit 1): yes
- Direction Opposite dE? (EV protein: [?] -related [?] -associated actin-dependent regulator [?] chromatin subfamily A member 5): yes
- Direction Opposite dE? (EV protein: [?] complex subunit 2): yes
- Direction Opposite dE? (EV protein: [?] kinase): yes
- Direction Opposite dE? (EV protein: [?] membrane protein 2): yes
- Direction Opposite dE? (EV protein: [?] myosin- [?]): yes
- Direction Opposite dE? (EV protein: [?] repeat-containing protein 5A): yes
- Direction Opposite dE? (EV protein: [?] ubiquitin-protein ligase [?]): yes
- Direction Opposite dE? (EV protein: [?] von Willebrand factor type A, [?] and pentraxin domain-containing protein 1): yes
- Direction Opposite dE? (EV protein: p21-activated protein kinase-interacting protein 1): yes
